This passage reports melting point results from patent publication US8674096B2, “Substituted imidazo[1,5-a]quinoxalin-4-ones as phosphodiesterase 9 inhibitors” (priority 2009, dated 2014).

The structures appear in SMILES notation.

As usually defined, the melting point is the temperature, or range, at which the solid turns liquid.

Take `Cc1cc2c(cc1C(=O)N1Cc3ccc(F)cc3C1)[nH]c(=O)c1cnc(C3CCCC3)n12`: the melting point is 228 to 231 °C.

Molecule `Cc1cc2c(cc1C(=O)N1Cc3cccc(C)c3C1)[nH]c(=O)c1cnc(C3CCOCC3)n12.Cl` gave a melting point of 206 to 208 °C.

Turning to `Cc1cc2c(cc1C(=O)N1CCc3c(Cl)cccc3C1)[nH]c(=O)c1nnc(-c3sccc3C)n12`, the melting point fell in the range of 310 to 312 °C.

As for `CN1CCN(C(=O)c2ccc3c(c2)[nH]c(=O)c2nnc(-c4ccc(O)cc4)n23)CC1c1ccccc1` (stereo not drawn), the melting point is 286 °C (dec.).

`Cc1cc2c(cc1C(=O)N1CCc3cc(Cl)ccc31)[nH]c(=O)c1nnc(C(=O)C3CC3)n12.Cl` registered a melting point of 288 to 290 °C.

Take `CCCc1nnc2c(=O)[nH]c3cc(C(=O)N4CCN(c5ccccc5Cl)CC4)c(C)cc3n12`: the melting point is 186 to 188 °C.

Molecule `Cc1cc2c(cc1C(=O)N1CCc3cccc(C(=O)O)c3C1)[nH]c(=O)c1cnc(C3CCOCC3)n12.Cl` gave a melting point of 212 to 213 °C.

Consider `Cc1cc2c(cc1C(=O)N1Cc3cccc(N4CCOCC4)c3C1)[nH]c(=O)c1cnc(C3CCOCC3)n12.Cl`, for which the melting point is 225 °C (dec.).

`Cc1cc2c(cc1C(=O)N1CCc3c(Cl)cc(Cl)cc3C1)[nH]c(=O)c1cnc(C3CCOCC3)n12.Cl`: the melting point was 188 to 190 °C (dec.).

In the case of `Cc1cc2c(cc1C(=O)N1CCc3cc(Br)ccc31)[nH]c(=O)c1cnc(C3CCOCC3)n12.Cl`, the melting point was 219 to 220 °C (dec.).

Molecule `O=C(c1ccc2c(c1)[nH]c(=O)c1nnc(C3CCOCC3)n12)N1CCOC(c2ccccc2)C1` (stereo not drawn) showed a melting point of 275 to 276 °C.

In turn, `Cc1cc2c(cc1C(=O)N1CCc3cc(Cl)ccc31)[nH]c(=O)c1cnc(C3CCCOC3)n12.Cl` (stereo not drawn) returned a melting point of 206 to 208 °C.

Turning to `Cc1cc2c(cc1C(=O)N1Cc3cccc(C)c3C1)[nH]c(=O)c1cnc(C3CCCOC3)n12.Cl` (stereo not drawn), the melting point was 283 °C (dec.).

On to `Cc1cc2c(cc1C(=O)N1CCc3cc(F)ccc31)[nH]c(=O)c1cnc(C3CCOC3)n12.Cl` (stereo not drawn), for which the melting point lay within 186 to 188 °C.

With `Cc1cc2c(cc1C(=O)N1CCc3c(Cl)cccc3C1)[nH]c(=O)c1cnc(C3CCOCC3)n12`, the melting point was 267 °C (dec.).

`Cc1cc2c(cc1C(=O)N1CCc3cc(Cl)ccc31)[nH]c(=O)c1nnc(C3CCCC3)n12.Cl` showed a melting point of 218 to 220 °C.

In the case of `Cc1cc2c(cc1C(=O)N1CCc3onc(-c4ccc(Cl)cc4)c3C1)[nH]c(=O)c1nnc(C3CCOC3)n12.Cl` (stereo not drawn), the melting point lay in the range of 219 to 221 °C.

For `Cc1cc2c(cc1C(=O)N1CCc3cccnc31)[nH]c(=O)c1nnc(C3CCCC3)n12`, the melting point was in the range of 207 to 209 °C.

On to `Cc1cc2c(cc1C(=O)N1Cc3ccccc3C1)[nH]c(=O)c1nnc(C3CCOC(C)(C)C3)n12` (stereo not drawn), for which the melting point is 287 °C (dec.).

On to `Cc1cc2c(cc1C(=O)N1CCc3cc(C4CC4)cnc31)[nH]c(=O)c1nnc(C3CCCC3)n12`, for which the melting point was 208 to 209 °C.

As to `Cc1cc2c(cc1C(=O)N1CCc3cc(Cl)ccc31)[nH]c(=O)c1nnc(C3CCOCC3)n12`, the melting point was 335 to 336 °C.

`Cc1cc2c(cc1C(=O)N1CCc3cc(F)c(Cl)cc31)[nH]c(=O)c1nnc(C3CCOCC3)n12.Cl`: the melting point is 316 to 319 °C.

In the case of `Cc1cc2c(cc1C(=O)N1CCc3cccnc31)[nH]c(=O)c1nnc(C3CCOCC3)n12`, the melting point is 370 °C (dec.).

In the case of `Cl.O=C(c1cc2[nH]c(=O)c3cnc(C4CCOCC4)n3c2cc1C1CC1)N1CCc2cc(F)ccc21`, the melting point was 318 to 321 °C (dec.).

In the case of `Cc1cc2c(cc1C(=O)N1Cc3ccccc3C1)[nH]c(=O)c1nnc(C3CCC3)n12.Cl`, the melting point was 236 °C (dec.).

`COc1cc2c(cc1C(=O)N1CCc3cc(F)ccc31)[nH]c(=O)c1cnc(C3CCOCC3)n12.Cl`: the melting point is 321 to 324 °C (dec.).

Take `COc1cc2c(cc1C(=O)N1Cc3ccccc3C1)[nH]c(=O)c1cnc(C3CCOCC3)n12.Cl`: the melting point was 199 to 201 °C (dec.).

In turn, `Cc1cc2c(cc1C(=O)N1Cc3c(F)ccc(F)c3C1)[nH]c(=O)c1cnc(C3CCCOC3)n12` (stereo not drawn) registered a melting point of 223 to 225 °C.

With `Cc1cc2c(cc1C(=O)N1Cc3ccccc3C1)[nH]c(=O)c1nnc(C3CCC(F)(F)CC3)n12`, the melting point was 322 °C (dec.).

Turning to `Cc1cc2c(cc1C(=O)N1CCc3cccnc31)[nH]c(=O)c1nnc(C3CCC(F)(F)CC3)n12.Cl`, the melting point was 310 °C (dec.).

In the case of `Cc1cc2c(cc1C(=O)N1Cc3ccccc3C1)[nH]c(=O)c1c(C)nc(C3CCOCC3)n12.Cl`, the melting point is 335 °C (dec.).

In the case of `Cc1cc2c(cc1C(=O)N1CCc3cc(Cl)ccc31)[nH]c(=O)c1c(C)nc(C3CCOCC3)n12.Cl`, the melting point is 198 °C (dec.).

Take `COc1cc2c(cc1C(=O)N1CCc3cc(C4CC4)cnc31)[nH]c(=O)c1cnc(C3CCOCC3)n12`: the melting point was 297 °C (dec.).

As for `O=C(c1cc2[nH]c(=O)c3cnc(C4CCOCC4)n3c2cc1C1CC1)N1CCc2cc(C3CC3)cnc21`, the melting point was 310 °C (dec.).

In turn, `Cc1cc2c(cc1C(=O)N1CCc3cc(F)c(F)cc31)[nH]c(=O)c1cnc(C3CCOCC3)n12.Cl` showed a melting point of 287 to 288 °C.

`Cl.O=C(c1cc2[nH]c(=O)c3cnc(C4CCOCC4)n3c2cc1C1CC1)N1Cc2cccc(F)c2C1`: the melting point fell in the range of 205 to 207 °C.

`COc1cc2c(cc1C(=O)N1Cc3cccc(F)c3C1)[nH]c(=O)c1cnc(C3CCOCC3)n12.Cl` had a melting point of 195 to 197 °C.

On to `Cc1cc2c(cc1C(=O)N1CCc3cccnc31)[nH]c(=O)c1nnc(C3CCCOC3)n12` (stereo not drawn), for which the melting point was 314 °C (dec.).

Turning to `Cc1cc2c(cc1C(=O)N1CCc3ccccc3CC1)[nH]c(=O)c1nnc(C3CCOCC3)n12.Cl`, the melting point lay in the range of 212 to 215 °C.

For `O=C(c1ccc2c(c1)[nH]c(=O)c1nnc(C3CCOCC3)n12)N1CCc2c(Cl)cccc2C1`, the melting point is 318 °C (dec.).

For `Cc1cc2c(cc1C(=O)N1CCc3sccc3C1)[nH]c(=O)c1nnc(C3CCOCC3)n12.Cl`, the melting point fell in the range of 216 to 219 °C.

As to `Cc1cc2c(cc1C(=O)N1CCc3c(cc(-c4ccccc4)n3C)C1)[nH]c(=O)c1nnc(C3CCOCC3)n12`, the melting point is 223 to 225 °C.

Consider `CN(C)CCOc1cc2c(cc1C(=O)N1CCc3cc(Cl)ccc31)[nH]c(=O)c1cnc(C3CCOCC3)n12`, for which the melting point was 219 to 221 °C (dec.).

`CCCc1nnc2c(=O)[nH]c3cc(C(=O)N4CCc5c(Cl)cccc5C4)ccc3n12`: the melting point fell in the range of 293 to 295 °C.

In the case of `Cc1cc2c(cc1C(=O)N1CCc3cc(Cl)cnc31)[nH]c(=O)c1cnc(C3CCOCC3)n12.Cl`, the melting point is 297 °C (dec.).

Turning to `Cc1cc2c(cc1C(=O)N1CCc3cc(Br)cnc31)[nH]c(=O)c1nnc(C3CCC(F)(F)CC3)n12`, the melting point was 343 °C (dec.).

For the molecule `Cc1cc2c(cc1C(=O)N1CCc3cc(Br)cnc31)[nH]c(=O)c1nnc(C3CCCOC3)n12` (stereo not drawn), the melting point was 218 to 220 °C (dec.).

On to `Cc1cc2c(cc1C(=O)N1CCc3cccnc31)[nH]c(=O)c1nnc(C3CCOC3)n12.Cl` (stereo not drawn), for which the melting point is 210 to 211 °C (dec.).

On to `CCCc1nnc2c(=O)[nH]c3cc(C(=O)N4Cc5ccc(F)cc5C4)ccc3n12`, for which the melting point was 293 °C (dec.).

Consider `Cc1cc2c(cc1C(=O)N1CCc3cc(Cl)ccc31)[nH]c(=O)c1ncc(C3CCCC3)n12.Cl`, for which the melting point was 279 °C (dec.).

The molecule `Cc1cc2c(cc1C(=O)N1CCc3cc(Cl)ccc31)[nH]c(=O)c1nnc(CC3CCSCC3)n12.Cl` displayed a melting point of 215 to 218 °C.

As to `Cc1cc2c(cc1C(=O)N1CCc3cc(F)ccc31)[nH]c(=O)c1cnc([C@H]3CC[C@@H](O)CC3)n12.Cl`, the melting point fell in the range of 200 to 202 °C.

With `COc1cc2c(cc1C(=O)N1CCc3cc(Cl)ccc31)[nH]c(=O)c1nnc(C3CCOCC3)n12.Cl`, the melting point is 284 °C (dec.).

As to `Cc1cc2c(cc1C(=O)N1Cc3ccc(F)cc3C1)[nH]c(=O)c1cnc(C3CCOCC3)n12.Cl`, the melting point fell in the range of 200 to 203 °C.

As for `COCc1cc2c(cc1C(=O)N1Cc3c(F)ccc(F)c3C1)[nH]c(=O)c1cnc(C3CCOCC3)n12.Cl`, the melting point is 172 to 174 °C.

In turn, `Cc1cc2c(cc1C(=O)N1CCc3cc(F)ccc31)[nH]c(=O)c1nnc(C3CC(F)(F)C3)n12` displayed a melting point of 234 to 235 °C.

Turning to `Cc1cc2c(cc1C(=O)N1CCc3cc(Cl)ccc31)[nH]c(=O)c1nnc(C3CC(F)(F)C3)n12`, the melting point fell in the range of 243 to 245 °C.

Consider `Cc1cc2c(cc1C(=O)N1CCc3cc(Cl)ccc31)[nH]c(=O)c1nnc(-c3ccccc3)n12`, for which the melting point lay within 248 to 249 °C.

`Cc1cc2c(cc1C(=O)N1CCc3cc(Cl)ccc31)[nH]c(=O)c1nnc([C@H]3CC[C@H](O)CC3)n12.Cl` gave a melting point of 235 to 237 °C.

For `COc1cc2c(cn1)N(C(=O)c1cc3[nH]c(=O)c4nnc(C5CCOCC5)n4c3cc1C)CC2`, the melting point is 271 °C (dec.).

As to `Cc1ccc2c(c1)CCN2C(=O)c1cc2[nH]c(=O)c3c(C)nc(C4CCOCC4)n3c2cc1C.Cl`, the melting point is 264 to 266 °C (dec.).

Consider `Cc1c(C(=O)N2CCc3cc(Cl)ccc32)ccc2c1[nH]c(=O)c1cnc(C3CCOCC3)n12`, for which the melting point was 290 °C (dec.).

For the molecule `Cc1cc2c(cc1C(=O)N1CCCc3ccccc3C1)[nH]c(=O)c1cnc(C3CCOCC3)n12.Cl`, the melting point fell in the range of 170 to 172 °C.

Regarding `COc1cc2c(cc1C(=O)N1Cc3ccccc3C1)[nH]c(=O)c1cnc(C3CCCCC3)n12.Cl`, the melting point fell in the range of 299 to 303 °C.

For `COCc1cc2c(cc1C(=O)N1CCc3cc(F)c(F)cc31)[nH]c(=O)c1nnc(C3(C)CCOCC3)n12.Cl`, the melting point was 195 to 198 °C.

`Cc1cc2c(cc1C(=O)N1CCc3ccc(C(F)(F)F)cc31)[nH]c(=O)c1cnc(C3CCOCC3)n12.Cl`: the melting point lay within 276 to 277 °C.

As for `Cc1cc2c(cc1C(=O)N1Cc3ccccc3C1)[nH]c(=O)c1nnc([C@H]3CC[C@H](C)CC3)n12`, the melting point was 318 to 321 °C.

The molecule `Cc1cc2c(cc1C(=O)N1Cc3cccc(C)c3C1)[nH]c(=O)c1nnc(C3CCOCC3)n12` gave a melting point of 262 to 263 °C.

For the molecule `Cc1cc2c(cc1C(=O)N1CCc3c(Cl)cccc3C1)[nH]c(=O)c1cnc(C3CCCC3)n12`, the melting point was 297 to 299 °C.
